Values of other authors, collected in publication PMC11767451, “Novel Approaches to Monitor Pharmacokinetics and Metabolism of Gemcitabine-Ibandronate Conjugate in Mice and Dogs” (Molecules, 2025).

Tested on: bone-associated cancer cells
Design: method as in PMID 30413669
Conditions: cited from earlier work

## CC(O)(P(=O)(O)O)P(=O)(O)OP(=O)(O)OC[C@H]1O[C@@H](n2ccc(N)nc2=O)[C@@H](O)[C@@H]1O (stereo partly drawn) [MBC-11]
Clinical trials
  bone localized effects compared to free cytarabine: 2–20 fold
In humans
  metabolic activity of bone-associated cancer cells: significant reductions
  tolerability: well tolerated
